This note sets out measurements from ChEMBL document CHEMBL5537154, “Smart glypican-3-targeting peptide-chlorin e6 conjugates for targeted photodynamic therapy of hepatocellular carcinoma” (Eur J Med Chem, 2024).

Peptide text beside a SMILES is read from it.

One data set deals with chymotrypsin (Homo sapiens, UniProt P17538+P40313+Q6GPI1+Q99895). Nature of the data set: Stability of compound assessed as chymotrypsin (unknown origin)-mediated compound degradation in PBS at pH 7.4 by measuring half life. In kind it is ADME, protein assay.
The subject of data set [1] is HepG2. Nature of the data set: Antiproliferative activity against human HepG2 cells under dark condition by CCK8 assay. In kind it is functional, cell-based. (In general: Formazan colour is commonly taken as a measure of viable cells.)
The test system of data set [2] is HepG2. The data set can be described thus: Antiproliferative activity against human HepG2 cells under 10 J/cm2 light irradiation at 660 nm by CCK8 assay. In kind it is functional, cell-based. The following applies: HepG2, light or radiation study.
In data set [3] the test system is Huh-7. The data set can be described thus: Antiproliferative activity against human Huh-7 cells under dark condition by CCK8 assay. In kind it is functional, cell-based.
The subject of data set [4] is Huh-7. Nature of the data set: Antiproliferative activity against human Huh-7 cells under 10 J/cm2 light irradiation at 660 nm by CCK8 assay. In kind it is functional, cell-based. The following applies: Huh-7, light or radiation study.
Data set [5] has as its system MCF7. The data set can be described thus: Antiproliferative activity against human MCF7 cells under dark condition by CCK8 assay. In kind it is functional, cell-based.
Data set [6] relates to MCF7. The data set can be described thus: Antiproliferative activity against human MCF7 cells under 10 J/cm2 light irradiation at 660 nm by CCK8 assay. In kind it is functional, cell-based. Particulars: MCF7, light or radiation study; call rule not given here.
For data set [7], the system named is HeLa. Nature of the data set: Antiproliferative activity against human HeLa cells under dark condition by CCK8 assay. In kind it is functional, cell-based.
The test system of data set [8] is HeLa. The data set can be described thus: Antiproliferative activity against human HeLa cells under 10 J/cm2 light irradiation at 660 nm by CCK8 assay. In kind it is functional, cell-based. Particulars: light or radiation study.
Data set [9] in a line: Antiproliferative activity against human HUVEC cells under dark condition by CCK8 assay. In kind it is toxicity, cell-based.
Data set [10] can be described thus: Antiproliferative activity against human HUVEC cells under 10 J/cm2 light irradiation at 660 nm by CCK8 assay. In kind it is toxicity, cell-based.
A short description of data set [11]: Partition coefficient, logP of compound. In kind it is physicochemical. Particulars: octanol/water.
Data set [12] in a line: Photostability of compound under 250 mW/cm2 light irradiation at 660 nm incubated for 10 mins by UV spectrophotometry. In kind it is physicochemical. Particulars: 0.66 µM.
Data set [13] can be described thus: Aggregation property of compound in PBS. In kind it is physicochemical. Particulars: buffer.

For H-DHLASLWWGTEL-OH, the half-life – broadly, the time in which the quantity being followed falls by half – at chymotrypsin was 1.1 h.

With `C=Cc1c(C)c2cc3nc(c(CC(=O)O)c4[nH]c(cc5nc(cc1[nH]2)C(C)=C5CC)c(C)c4C(=O)NCCCC(=O)N[C@@H](CC(=O)O)C(=O)N[C@@H](Cc1ccc(O)cc1)C(=O)N[C@@H](CCC(=O)O)C(=O)N[C@@H](CCSC)C(=O)N[C@@H](Cc1cnc[nH]1)C(=O)N[C@@H](CC(C)C)C(=O)N[C@@H](Cc1c[nH]c2ccccc12)C(=O)N[C@@H](Cc1c[nH]c2ccccc12)C(=O)NCC(=O)N[C@H](C(=O)N[C@@H](CCC(=O)O)C(=O)N[C@@H](CC(C)C)C(=O)O)[C@@H](C)O)[C@@H](CCC(=O)O)[C@@H]3C` (HELM PEPTIDE1{[C=Cc1c(C)c2cc3nc(c(CC(=O)O)c4[nH]c(cc5nc(cc1[nH]2)C(C)=C5CC)c(C)c4C(=O)[*:2])[C@@H](CCC(=O)O)[C@@H]3C].[O=C(CCCN[*:1])[*:2]].D.Y.E.M.H.L.W.W.G.T.E.L}$$$$V2.0), the IC50 (in general, the concentration at which inhibition is half-maximal) in the data set with HepG2 [1] was > 200 µM; with HepG2 [2], 1.7 µM; in the data set with Huh-7 [3], > 200 µM; in the data set on Huh-7 [4], 1.9 µM; in the data set with MCF7 [5], > 200 µM; with MCF7 [6] it was 5.3 µM. In addition, the IC50 in the data set on HeLa [7] was > 200 µM; in the data set with HeLa [8], 4.7 µM; in data set [9], > 200 µM; in data set [10], 9.8 µM. Besides, the logP (as a rule, a log measure of how a compound divides between an organic and an aqueous phase) in data set [11] came to 1.5. For the same compound, the Stability result in [12] is on record as “Stable”. The outcome in [13] was Active. Moreover, at chymotrypsin, the half-life is 1.3 h.

As to `C=Cc1c(C)c2cc3nc(c(CC(=O)O)c4[nH]c(cc5nc(cc1[nH]2)C(C)=C5CC)c(C)c4C(=O)NCCCC(=O)N[C@@H](CCCCN)C(=O)N[C@@H](CCCCN)C(=O)N[C@@H](CCCCN)C(=O)N[C@@H](CCCNC(=N)N)C(=O)N[C@@H](CC(C)C)C(=O)N[C@@H](CC(N)=O)C(=O)N[C@H](C(=O)NCC(=O)NCC(=O)N[C@H](C(=O)N[C@@H](Cc1ccc(O)cc1)C(=O)N[C@@H](Cc1ccccc1)C(=O)N[C@@H](CC(C)C)C(=O)N[C@H](C(=O)N[C@H](C(=O)N[C@@H](CCCNC(=N)N)C(=O)N[C@@H](CCC(N)=O)C(=O)O)[C@@H](C)O)[C@@H](C)O)[C@@H](C)O)C(C)C)[C@@H](CCC(=O)O)[C@@H]3C` (HELM PEPTIDE1{[C=Cc1c(C)c2cc3nc(c(CC(=O)O)c4[nH]c(cc5nc(cc1[nH]2)C(C)=C5CC)c(C)c4C(=O)[*:2])[C@@H](CCC(=O)O)[C@@H]3C].[O=C(CCCN[*:1])[*:2]].K.K.K.R.L.N.V.G.G.T.Y.F.L.T.T.R.Q}$$$$V2.0), the IC50 was > 200 µM in the data set with HepG2 [1]; 0.33 µM in the data set with HepG2 [2]; > 200 µM with Huh-7 [3]; 0.34 µM with Huh-7 [4]; > 200 µM in the data set on MCF7 [5]; 0.79 µM in the data set on MCF7 [6]. Also, the IC50 with HeLa [7] is > 200 µM; in the data set with HeLa [8], 0.57 µM; in [9], > 200 µM; in data set [10], 0.38 µM. The logP in data set [11] was -0.5. Also, the Stability entry in [12] is reported as “Stable”. For the same compound, the Activity result in data set [13] is “Not Active”. Also, the half-life at chymotrypsin is 1.3 h.

Take `C=Cc1c(C)c2cc3nc(c(CC(=O)O)c4[nH]c(cc5nc(cc1[nH]2)C(C)=C5CC)c(C)c4C(=O)NCCCC(=O)N[C@@H](CCCNC(=N)N)C(=O)N[C@@H](CC(C)C)C(=O)N[C@@H](CC(N)=O)C(=O)N[C@H](C(=O)NCC(=O)NCC(=O)N[C@H](C(=O)N[C@@H](Cc1ccc(O)cc1)C(=O)N[C@@H](Cc1ccccc1)C(=O)N[C@@H](CC(C)C)C(=O)N[C@H](C(=O)N[C@H](C(=O)N[C@@H](CCCNC(=N)N)C(=O)N[C@@H](CCC(N)=O)C(=O)O)[C@@H](C)O)[C@@H](C)O)[C@@H](C)O)C(C)C)[C@@H](CCC(=O)O)[C@@H]3C` (HELM PEPTIDE1{[C=Cc1c(C)c2cc3nc(c(CC(=O)O)c4[nH]c(cc5nc(cc1[nH]2)C(C)=C5CC)c(C)c4C(=O)[*:2])[C@@H](CCC(=O)O)[C@@H]3C].[O=C(CCCN[*:1])[*:2]].R.L.N.V.G.G.T.Y.F.L.T.T.R.Q}$$$$V2.0): the IC50 with HepG2 [1] is > 100 µM; in the data set with HepG2 [2] it was 0.31 µM; in the data set on Huh-7 [3], > 100 µM; in the data set on Huh-7 [4] it was 0.25 µM; in the data set on MCF7 [5], > 100 µM; in the data set with MCF7 [6], 0.88 µM. The IC50 with HeLa [7] is > 100 µM; in the data set on HeLa [8] it was 0.72 µM; in data set [9] it was > 200 µM; in data set [10] it was 2.1 µM. In [11], this compound had a logP of 0.8. Moreover, the Stability entry in data set [12] is on record as “Stable”. Further, the outcome in data set [13] was Active. Also, the half-life on chymotrypsin is 2.4 h.
